Values joined by “and” are separate entries in the source; they are usually repeats but may differ in a detail not shown here. Equal values may be shown once.
Columns and labels:
Settings in all cases: average where tested multiple times
BCAT2 [1] = biological target: T1, BCAT2 (Homo sapiens, UniProt O15382); experiment: BCAT2 in vitro enzyme inhibition assay (resazurin/diaphorase-coupled fluorescence); type: biochemical
T1 sequence (O15382 28-392): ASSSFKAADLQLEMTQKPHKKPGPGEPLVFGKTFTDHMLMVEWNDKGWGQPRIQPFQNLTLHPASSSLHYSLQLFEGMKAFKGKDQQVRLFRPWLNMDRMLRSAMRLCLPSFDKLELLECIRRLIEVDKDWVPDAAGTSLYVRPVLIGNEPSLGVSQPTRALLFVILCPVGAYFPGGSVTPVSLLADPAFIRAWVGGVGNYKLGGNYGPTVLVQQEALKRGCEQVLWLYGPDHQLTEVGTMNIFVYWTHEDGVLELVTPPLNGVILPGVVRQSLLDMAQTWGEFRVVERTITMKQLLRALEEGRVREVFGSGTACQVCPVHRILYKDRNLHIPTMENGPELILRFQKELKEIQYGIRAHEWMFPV
In short: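 Coupled fluorescence readout: glutamate formed from L-leucine/α-ketoglutarate transamination drives GDH/NAD/diaphorase reduction of resazurin (Ex 540/Em 590). Human BCAT2 was first exposed 1 h at room temperature to compound, top final 100 μM in 3-fold, 10-point series; substrate reaction ran 1 h before SDS quench, in technical duplicate with DMSO max and enzyme-free min controls.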

hBCAT1 = biological target: T2, hBCAT1 (Homo sapiens, UniProt P54687); experiment: BCAT1 in vitro enzyme inhibition assay (resazurin/diaphorase-coupled fluorescence); type: biochemical
T2 sequence (P54687 1-386): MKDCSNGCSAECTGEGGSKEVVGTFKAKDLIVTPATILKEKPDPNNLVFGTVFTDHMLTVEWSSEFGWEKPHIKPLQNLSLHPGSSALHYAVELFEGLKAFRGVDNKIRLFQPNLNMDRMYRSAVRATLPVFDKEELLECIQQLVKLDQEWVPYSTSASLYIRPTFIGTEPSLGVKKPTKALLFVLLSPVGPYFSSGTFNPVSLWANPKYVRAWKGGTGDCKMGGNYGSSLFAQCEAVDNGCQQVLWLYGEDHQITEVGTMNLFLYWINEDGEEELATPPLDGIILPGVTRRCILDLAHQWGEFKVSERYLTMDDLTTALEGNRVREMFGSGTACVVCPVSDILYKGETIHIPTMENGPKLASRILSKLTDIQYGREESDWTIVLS
In short: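 Human BCAT1 activity read by resazurin/diaphorase-coupled fluorescence. Compounds added from 50× DMSO stocks at 1:50, giving 10-point 3-fold titrations from 100 μM top final concentration. Run in technical duplicate; repeat tests averaged.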

BCAT2 [2] = biological target: T1, BCAT2; experiment: BCAT2 in vitro cell inhibition using engineered A549 cells (KMV cell assay, 13C6-KMV by LC-MS/MS); type: cell-based; design: The result was an engineered A549 cell line that expressed endogenous BCAT2; endogenous in cells; host or cells: A549 cells with MUT and BCAT1 knocked out by CRISPR/CAS9

Row | SMILES | IC50 (BCAT2 [1]) | IC50 (hBCAT1) | IC50 (BCAT2 [2])
1 | O=C(N[C@H]1CCC[C@@H](n2c(-c3ccccc3F)nc3cnc(-n4nccn4)nc32)C1)c1ncc(C(F)F)s1 [Example 62, 5-(difluoromethyl)-N-((1S,3R)-3-(8-(2-fluorophenyl)-2-(2H-1,2,3-triazol-2-yl)-9H-purin-9-yl)cyclohexyl)thiazole-2-carboxamide] | ≤ 100 nM | 500 to 1000 nM | ≤ 100 nM
2 | O=C(N[C@H]1CCC[C@@H](n2c(Oc3ccccc3)nc3cnc(-n4nccn4)cc32)C1)c1ccc(Br)s1 [Example 63, 5-bromo-N-((1S,3R)-3-(2-phenoxy-6-(2H-1,2,3-triazol-2-yl)-1H-imidazo[4,5-c]pyridin-1-yl)cyclohexyl)thiophene-2-carboxamide] | ≤ 100 nM | > 5000 nM | 100 to 500 nM
3 | COC(=O)c1cnn(-c2cc3c(cn2)nc(-c2ccccn2)n3[C@@H]2CCC[C@H](NC(=O)c3ncc(C(F)F)s3)C2)n1 [Example 64, methyl 2-(1-((1R,3S)-3-(5-(difluoromethyl)thiazole-2-carboxamido)cyclohexyl)-2-(pyridin-2-yl)-1H-imidazo[4,5-c]pyridin-6-yl)-2H-1,2,3-triazole-4-carboxylate] | ≤ 100 nM | 1000 to 5000 nM | 100 to 500 nM and 500 to 1000 nM
4 | O=C(N[C@H]1CCC[C@@H](n2c(-c3ncccc3F)nc3cnc(-n4nccn4)cc32)C1)c1ncc(C(F)(F)F)s1 [Example 65, N-((1S,3R)-3-(2-(3-fluoropyridin-2-yl)-6-(2H-1,2,3-triazol-2-yl)-1H-imidazo[4,5-c]pyridin-1-yl)cyclohexyl)-5-(trifluoromethyl)thiazole-2-carboxamide] | ≤ 100 nM | 500 to 1000 nM | ≤ 100 nM
5 | N#Cc1cnc(C(=O)N[C@H]2CCC[C@@H](n3c(-c4ncccc4F)nc4cnc(-n5nccn5)cc43)C2)s1 [Example 66, 5-cyano-N-((1S,3R)-3-(2-(3-fluoropyridin-2-yl)-6-(2H-1,2,3-triazol-2-yl)-1H-imidazo[4,5-c]pyridin-1-yl)cyclohexyl)thiazole-2-carboxamide] | ≤ 100 nM | < 500 nM | ≤ 100 nM
6 | O=C(N[C@H]1CCC[C@@H](n2c(-n3nccn3)nc3cnc(-n4nccn4)cc32)C1)c1ncc(C(F)F)s1 [Example 67, N-((1S,3R)-3-(2,6-di(2H-1,2,3-triazol-2-yl)-1H-imidazo[4,5-c]pyridin-1-yl)cyclohexyl)-5-(difluoromethyl)thiazole-2-carboxamide] | 100 to 500 nM | > 5000 nM | > 1000 nM
7 | O=C(N[C@H]1CCC[C@@H](n2c(-c3ccccc3F)nc3cnc(-c4nc[nH]n4)cc32)C1)c1ncc(C(F)F)s1 [Example 68, 5-(difluoromethyl)-N-[(1S,3R)-3-[2-(2-fluorophenyl)-6-(1H-1,2,4-triazol-3-yl)imidazo[4,5-c]pyridin-1-yl]cyclohexyl]thiazole-2-carboxamide] | ≤ 100 nM | < 500 nM | ≤ 100 nM
8 | O=C(N[C@H]1CCC[C@@H](n2c(Nc3ccccn3)nc3cnc(-n4nccn4)cc32)C1)c1ncc(C(F)F)s1 [Example 69, 5-(difluoromethyl)-N-((1S,3R)-3-(2-(pyridin-2-ylamino)-6-(2H-1,2,3-triazol-2-yl)-1H-imidazo[4,5-c]pyridin-1-yl)cyclohexyl)thiazole-2-carboxamide] | 100 to 500 nM | > 5000 nM | > 1000 nM
9 | O=C(N[C@H]1CCC[C@@H](n2c(-c3ccccc3F)nc3cnc(-n4nccn4)cc32)C1)c1ncc(Cl)s1 [Example 71, 5-chloro-N-((1S,3R)-3-(2-(2-fluorophenyl)-6-(2H-1,2,3-triazol-2-yl)-1H-imidazo[4,5-c]pyridin-1-yl)cyclohexyl)thiazole-2-carboxamide] | ≤ 100 nM | < 500 nM | ≤ 100 nM
10 | O=C(N[C@H]1CCC[C@@H](n2c(-c3ccccc3F)nc3cnc(-n4nccn4)cc32)C1)c1ccc(Cl)s1 [Example 72, 5-chloro-N-((1S,3R)-3-(2-(2-fluorophenyl)-6-(2H-1,2,3-triazol-2-yl)-1H-imidazo[4,5-c]pyridin-1-yl)cyclohexyl)thiophene-2-carboxamide] | ≤ 100 nM | < 500 nM | ≤ 100 nM
11 | O=C(N[C@H]1CCC[C@@H](n2c(Nc3ccccc3)nc3cnc(-n4nccn4)cc32)C1)c1ncc(C(F)F)s1 [Example 73, 5-(difluoromethyl)-N-((1S,3R)-3-(2-(phenylamino)-6-(2H-1,2,3-triazol-2-yl)-1H-imidazo[4,5-c]pyridin-1-yl)cyclohexyl)thiazole-2-carboxamide] | ≤ 100 nM | > 5000 nM | > 1000 nM
12 | CC(C)Cc1nc2cnc(-n3nccn3)cc2n1[C@@H]1CCC[C@H](NC(=O)c2ccc(Cl)s2)C1 [Example 74, 5-chloro-N-((1S,3R)-3-(2-isobutyl-6-(2H-1,2,3-triazol-2-yl)-1H-imidazo[4,5-c]pyridin-1-yl)cyclohexyl)thiophene-2-carboxamide] | ≤ 100 nM | < 500 nM | ≤ 100 nM
13 | O=C(N[C@H]1CCC[C@@H](n2c(-c3ncccc3F)nc3cnc(-c4nc[nH]n4)cc32)C1)c1ncc(C(F)F)s1 [Example 75, 5-(difluoromethyl)-N-((1S,3R)-3-(2-(3-fluoropyridin-2-yl)-6-(1H-1,2,4-triazol-3-yl)-1H-imidazo[4,5-c]pyridin-1-yl)cyclohexyl)thiazole-2-carboxamide] | ≤ 100 nM | < 500 nM | ≤ 100 nM
14 | O=C(N[C@H]1CCC[C@@H](n2c(-c3ncccc3F)nc3cnc(-n4nccn4)cc32)C1)c1ccc(Cl)s1 [Example 76, 5-chloro-N-((1S,3R)-3-(2-(3-fluoropyridin-2-yl)-6-(2H-1,2,3-triazol-2-yl)-1H-imidazo[4,5-c]pyridin-1-yl)cyclohexyl)thiophene-2-carboxamide] | ≤ 100 nM | < 500 nM | ≤ 100 nM
15 | O=C(N[C@H]1CCC[C@@H](n2c(-c3ccccc3F)nc3cnc(-c4ccn[nH]4)cc32)C1)c1ncc(C(F)F)s1 [Example 77, 5-(difluoromethyl)-N-((1S,3R)-3-(2-(2-fluorophenyl)-6-(1H-pyrazol-5-yl)-1H-imidazo[4,5-c]pyridin-1-yl)cyclohexyl)thiazole-2-carboxamide] | ≤ 100 nM | < 500 nM | ≤ 100 nM
16 | O=C(N[C@H]1CCC[C@@H](n2c(-c3ncccc3F)nc3cnc(-c4ccn[nH]4)cc32)C1)c1ccc(Cl)s1 [Example 78, 5-chloro-N-((1S,3R)-3-(2-(3-fluoropyridin-2-yl)-6-(1H-pyrazol-5-yl)-1H-imidazo[4,5-c]pyridin-1-yl)cyclohexyl)thiophene-2-carboxamide] | ≤ 100 nM | < 500 nM | ≤ 100 nM
17 | CC(C)Oc1nc2cnc(-n3nccn3)cc2n1[C@@H]1CCC[C@H](NC(=O)c2ncc(C(F)F)s2)C1 [Example 79, 5-(difluoromethyl)-N-((1S,3R)-3-(2-isopropoxy-6-(2H-1,2,3-triazol-2-yl)-1H-imidazo[4,5-c]pyridin-1-yl)cyclohexyl)thiazole-2-carboxamide] | 100 to 500 nM | > 5000 nM | > 1000 nM
18 | O=C(N[C@H]1CCC[C@@H](n2c(-c3ncccc3F)nc3cnc(-c4nc[nH]n4)cc32)C1)c1ccc(Cl)s1 [Example 80, 5-chloro-N-((1S,3R)-3-(2-(3-fluoropyridin-2-yl)-6-(1H-1,2,4-triazol-3-yl)-1H-imidazo[4,5-c]pyridin-1-yl)cyclohexyl)thiophene-2-carboxamide] | ≤ 100 nM | < 500 nM | ≤ 100 nM
19 | O=C(N[C@H]1CCC[C@@H](n2c(-c3ccccc3F)nc3cnc(-c4cn[nH]c4)cc32)C1)c1ncc(Cl)s1 [Example 81, 5-chloro-N-((1S,3R)-3-(2-(2-fluorophenyl)-6-(1H-pyrazol-4-yl)-1H-imidazo[4,5-c]pyridin-1-yl)cyclohexyl)thiazole-2-carboxamide] | ≤ 100 nM | < 500 nM | 100 to 500 nM
